Test results as given in US20240261294A1, “METHOD FOR TREATING IDH INHIBITOR-RESISTANT SUBJECTS” (Eli Lilly and Company, priority 2021, published 2024).
Substitutions are numbered along the chain they refer to.

Key:
mutant IDH1 = conditions: covalent inhibitor of mutant IDH1 (Cys269); without affecting α-KG levels; cited from earlier work
IDH2 R140L_Q316E trans = molecular target: T1, IDH2 R140L_Q316E trans (Homo sapiens, UniProt P48735, Q316E/R140L); assay: Inhibition of 2-HG production in IDH2 mutant U-87 MG cells; format: cell-based; conditions: 16 hours incubation, 50K cells/well, 100 μl media/well, read-out: Relative IC50 (nM) Mean, inhibition of 2-HG production
T1 construct: expressed in transfected cells; host or cells: U-87 MG
T1 sequence (P48735 40-452 R140L): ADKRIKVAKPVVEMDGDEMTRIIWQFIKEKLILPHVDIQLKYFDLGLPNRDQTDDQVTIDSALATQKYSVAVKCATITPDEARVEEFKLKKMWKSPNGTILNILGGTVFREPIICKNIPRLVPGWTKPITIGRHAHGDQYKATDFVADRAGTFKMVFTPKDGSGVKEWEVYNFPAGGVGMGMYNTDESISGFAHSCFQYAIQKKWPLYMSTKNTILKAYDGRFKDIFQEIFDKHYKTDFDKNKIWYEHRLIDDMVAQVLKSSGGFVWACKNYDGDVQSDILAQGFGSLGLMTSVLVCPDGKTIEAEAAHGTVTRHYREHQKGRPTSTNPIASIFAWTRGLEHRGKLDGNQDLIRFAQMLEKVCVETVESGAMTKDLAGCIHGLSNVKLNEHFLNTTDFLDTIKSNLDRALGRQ
T1 sequence (P48735 40-452 Q316E): T1 sequence (P48735 40-452 R140L) with L101R, Q277E

- IC50 (IDH2 R140L_Q316E trans): 262 nM
Structure (SMILES): C=CC(=O)N1CCN([C@@H](CC2CC2)c2ccc([C@H](C)Nc3ncc4c(n3)N(CC)C(=O)OC4)cc2)CC1 [Compound A, 7-[[(1S)-1-[4-[(1S)-2-cyclopropyl-1-(4-prop-2-enoylpiperazin-1-yl)ethyl]phenyl]ethyl]amino]-1-ethyl-4H-pyrimido[4,5-d][1,3]oxazin-2-one]
- inhibition of 2-HG production (mutant IDH1): selectively inhibits 2-HG production
